This is an account of results in US11464785B2, “Treatment of addiction and impulse-control disorders using PDE7 inhibitors” (priority 2010, dated 2022).

The test system of one series is dopaminergic VTA neurons. As to the kind of experiment: Whole-cell current clamp recordings from rat VTA horizontal slices. Type of series: cell-based. The text has this: The reinforcing effects of nicotine are believed to result from its activation of dopaminergic neurons in the ventral tegmental area (VTA) (Pidoplichko V I et al., Nature 390:401-404 (1997); Liu L, et al., Nicotine persistently activates ventral tegmental area dopaminergic neurons via nicotinic acetylcholine receptors containing α4 and α6 subunits. Mol Pharmacol, 81(4):541-8 (2012)). The inventors sought to evaluate the anti-addictive potential of PDE7 inhibitors by studying their ability to modify basal and drug of abuse-induced changes in VTA dopamine activity by performing whole-cell current clamp recordings from rat VTA horizontal slices ex vivo. For this purpose nicotine was used as an example of drugs of abuse.
Dopaminergic neurons were identified by the presence of a large hyperpolarizing current. Johnson, S. W., et al., “Opioids excite dopamine neurons by hyperpolarization of local interneurons,”J. Neurosci 12:483-488 (1992).
An additional electrophysiology study was completed to evaluate the effect of the PDE7 inhibitor OMS182399 on VTA DA neuronal activity in the setting of cocaine, morphine or alcohol. The preparation of VTA slices was as described above in Example 8.
Drug-induced changes in firing rate were calculated by averaging the effects after drug administration (five minutes) and normalizing to the pre-drug baseline. All the numerical data are given as mean±s.e.m. Data were compared and analyzed by utilizing two-way ANOVA for repeated measures (treatment×time), or Student's t-test for repeated measures, when appropriate. Statistical analysis was performed by means of the GraphPad Prism program. The significance level was established at P<0.05.
The acute effect of OMS182399 was investigated on dopamine neurons of the VTA in a rat horizontal brain slice preparation containing the midbrain. Whole-cell current-clamp recordings were performed from VTA dopamine neurons.

The next series concerns binge eating model. The series can be described thus: Stress-induced binge eating of highly palatable food (HPF). The class given is in vivo, female rats. The conditions noted are these: topiramate 60 mg/kg i.p. From the text: To mimic binge eating disorder in laboratory animals, a binge eating model was developed where binge eating is elicited by yo-yo dieting and stressful exposure to Highly Palatable Food (HPF). In this model, female rats are exposed to repeated cycles of restriction and a stressful procedure characterized by exposure of animals to HPF without the possibility of accessing it. This procedure elicits a selective increase of highly palatable food intake that is overconsumed during a very short period of time. As described below, using this model, endowed with significant predictive and face validity, the effect of PDE7 inhibitors on binge eating (one of the most significant forms of food addiction) was investigated.
Reinstatement of binge eating behavior has been obtained in experimental animals through a combination of repeated food restriction and stress. [Cifani et al, Psychopharmacology 204:113-125 (2009)]. For the present invention, stress-induced binge eating was tested as in Cifani.
Rats were housed in individual cages and were given chow and water ad libitum for two weeks prior to the experiment. […]
After one hour, animals were given HPF and ad libitum chow. Intake of HPF was measured after two hours.

Series [1] concerns rat model of cocaine addiction. The class given is in vivo, rats. As to the method: PDE7 inhibitors and DRD1 agonists were next tested for their effect on cocaine priming-induced relapse. Rats were trained to self-administer cocaine, as above, and were then exposed to extinction conditions. Cocaine was replaced with saline solution. […] Rats were treated with vehicle or agent and ten minutes later were administered cocaine. Lever pressing was counted for one hour following cocaine administration. […] Once again, administration of PDE7 inhibitors and dopamine D1 agonist had very different results in cocaine addicted animals.

For series [2], the system named is rat model of cocaine addiction.
Description: Cocaine hydrochloride (obtained from the National Institute on Drug Abuse, Bethesda, Md.) was dissolved in sterile physiological saline at a concentration of 0.25 mg/0.1 mL. Drug or vehicle solution was infused at a volume of 0.1 mL over 4 seconds. […] OMS182401 was given intraperitoneally.
Male Wistar rats weighing between 180 and 200 g at the time of arrival in the lab were used. The rats were housed in groups of three in a humidity—(45-55%) and temperature-controlled (22 degrees C.) vivarium on a 12 h: 12 h reverse light/dark cycle (on, 17:00; off, 05:00) with ad libitum access to food and water. Experiments were conducted during the dark phase of the light/dark cycle. One week after arrival, rats were subjected to surgery, and a silastic catheter was implanted into the right jugular vein. The experimental stations consisted of operant conditioning chambers (Med Associate Inc.) enclosed in sound-attenuating, ventilated environmental cubicles. Cocaine was delivered by a plastic tube connected to the catheter before the beginning of the session. […] An IBM-compatible computer controlled the delivery of fluids and recording of the behavioral data.
Cocaine self-administration training continued until a stable baseline of responding was reached (less than 10% variation for 3 consecutive days calculated for each single rat). At this point, drug testing began.
Rats were treated with PDE7 inhibitors (0.0, 0.3, 1.0 and 3.0 mg/kg) given i.p. 12 hours and 1 hour before the beginning of the self-administration session. […] A 3-day interval was allowed between drug testing. During these intervals, cocaine self-administration was continued to re-establish baseline lever responses.
Cocaine self-administration training continued until a stable baseline of responding was reached (less than 10% variation for 3 consecutive days calculated for each single rat). At this point, drug testing began. The animals were injected with vehicle or drug 15 minutes before the test session.
In order to test the effect of raising cAMP levels through activation of DRD1 on cocaine self-administration, the DRD1 agonist SKF82958 was administered i.p. to rats trained to self-administer cocaine. […] SKF82958 was administered at 1.0 mg/kg. […] The long-access model was not evaluated in this case.
Rats were surgically implanted with jugular catheters and allowed to recover for one week. Animals then underwent daily six-hour (long-access) training sessions in which each press of the active lever triggered delivery of 0.25 mg cocaine. After one week, the ratio was increased so that five lever presses were required to receive the same amount of cocaine. The animal training continued for about six weeks. […] Reinforced responses were assessed over two hour periods.
Series [3] relates to rat model of cocaine addiction. The conditions noted are these: in vivo.
The next series concerns open field activity. As to the kind of experiment: Open field activity model. Particulars: C57BL/6 mice; SKF82958 1 mg/kg; FIG. 36. Type of series: in vivo, wild type C57BL/6 mice. As to the method: In order to assess the ability of PDE7 inhibitors to enhance DRD1 signaling in vivo, the effects of the PDE7 inhibitor OMS182401 and the DRD1 agonist SKF82958, alone and in combination, were evaluated in an open field activity model using wild type C57BL/6 mice.

In series [4] the test system is dopamine release in the nucleus accumbens. As to the kind of experiment: In vivo microdialysis of dopamine release in the nucleus accumbens. Also noted: species or system Male Wistar rats. The conditions noted are these: nicotine 0.4 mg/kg sc.
Description: Male Wistar rats (Harlan, Italy) weighing 275-300 g were housed in groups of six per cage with standard food (Morini, Italy) and water ad libitum, for at least five days in the central animal room under constant temperature (23° C.), humidity (60%) and a 12 hour light/dark cycle (light from 8 a.m. to 8 p.m.).
Concentric dialysis probes with a dialysing portion of 1.5 mm were prepared with AN69 (acrylonitrile sodium methallyl sulfonate copolymer) dialysis fiber (310 μm o.d. 220 μm i.d. Hospal, Dasco, Italy), according to the method of De Luca et al. (2007). Rats were anaesthetized with chloral hydrate (400 mg/kg i.p.) and placed in a stereotaxic apparatus. The scalp was incised and the skull leveled between lambda and bregma. […] Samples from each of the NAc shell and core were taken every 10 or 20 minutes (depending on the experiments) and analyzed.
Dialysate samples (10 or 20 μl) were injected into an HPLC equipped with a reverse phase column (C8 3.5 um, Waters, Mildford, Mass., USA) and a coulometric detector (ESA, Coulochem II, Bedford, Mass.) to quantify DA. […]
NAc shell and core dialysate DA was monitored for at least three hours. […] Dialysate DA was monitored for at least three hours after nicotine treatment.

As for `CCO` [Ethanol], in the series with dopaminergic VTA neurons (Ethanol 100 mM, 5 min, n=6), the “firing rate of VTA DA cells” value was 158.3±26.7 % of basal firing rate.
Regarding `CC1(C)O[C@@H]2[C@@H](CO[C@@]3(COS(N)(=O)=O)OC(C)(C)O[C@@H]23)O1` [Topiramate], the “times of observation at which HPF intake was reduced, R+S group, highest dose” value in the series with binge eating model (OMS182056 3 mg/kg i.p., p<0.05) is reported as “evident at all the times of observation”. For the same molecule, in the series on binge eating model (rats, two hours, OMS182401 3.0 mg/kg i.p., OMS182056 1.0 and 3.0 mg/kg i.p., FIGS. 23D, 24D, 25D), the “HPF intake, restricted and stressed (R+S) group” value is given as “reduced HPF intake only in the R+S group”.
On to `Br.C=CCN1CCc2c(cc(O)c(O)c2Cl)C(c2ccccc2)C1` (racemic) [SKF82958, (±)-6-Chloro-7,8-dihydroxy-3-allyl-1-phenyl-2,3,4,5-tetrahydro-1H-3-benzazepine hydrobromide], for which the “behavior of treated animals in cocaine priming test” value in series [1] (rat, in vivo) is listed as “exhibited significantly abnormal behavior”. The “cocaine priming-induced lever pressing” value in series [1] (rats, agent ten minutes before cocaine, lever pressing for one hour, FIGS. 13 and 14) was “significantly reduced lever pressing induced by cocaine priming”. Also, the “behavior of animals given the agent with cocaine” value in series [2] (rat, in vivo, ip) was “exhibited significantly abnormal behavior and were extremely aggressive”. Moreover, the “cocaine self-administration, short-access model” value in series [2] (rats, 2-hour sessions, OMS182401 15 minutes before session (FIG. 3), SKF82958 1.0 mg/kg i.p. (FIG. 4)) is “significantly reduced cocaine self-administration in the short-access model”. For the same molecule, in series [2] (rats, short-access, i.p.), the “cocaine self-administration, first hour after treatment” value is “a significant reduction in self-administration was observed at both doses” and the “cocaine self-administration, two hours after treatment” value is “the trend of self-administration reduction was non-significant”. The “lever pressing when administered on its own (addictive properties)” value in series [3] was “Neither agent caused increased lever pressing”. In the series on open field activity, the “open-field activity, single agents” value is recorded as “stimulated open-field activity at 1 mg/kg”. Besides, in the series on dopaminergic VTA neurons (30 nM OMS182401 alone or 1 uM SKF82958 alone), the “nicotine-induced activation of VTA neurons, single agents at low concentration” value is on record as “ineffective”. Moreover, the “spontaneous firing rate of dopaminergic VTA neurons” value in the series with dopaminergic VTA neurons (OMS182401, SKF82958 at 3.0 and 10.0 uM, FIG. 29A) is given as “a similar effect was observed”.
Take `CN1CC[C@]23c4c5ccc(O)c4O[C@H]2[C@@H](O)C=C[C@H]3[C@H]1C5` [morphine]: in the series on dopaminergic VTA neurons (morphine, 3 min, n=7), the “firing rate of VTA DA cells” value is recorded as 224.4±19.5 % of basal firing rate.
Take `CN1CCC[C@H]1c1cccnc1` [nicotine]: in series [4], the “DA release in the NAc shell” value was “increases DA release in the NAc shell”.
In the case of `COC(=O)[C@H]1[C@@H](OC(=O)c2ccccc2)C[C@@H]2CC[C@H]1N2C` [cocaine], the “firing rate of VTA DA cells” value with dopaminergic VTA neurons (cocaine 1 μM, 5 min, n=7) is 36.4±9.1 % of basal firing rate.
